The nature of series [1]: Salt solubility measurement in water. The settings on record: for solubility / Solubility as free base / Solubility as salt: water, stirred at ambient temperature 18-20 hours, filtered, hplc assay; for solubility: thermodynamic from solid; for pH of the remaining solution: remaining solution after solubility measurement in water.
Series [2] deals with gastric tumor (N87) cell line. Nature of the series: Methylene blue growth inhibition assay, N87. In kind it is cell-based. The settings on record: Homo sapiens, 72 h, N87 cells, 3 days. As for the experimental part:
(§1) Human breast (BT474), head and neck (HN5) and gastric tumor (N87) cell lines and human foreskin Fibroblasts (HFF) were cultured in low glucose DMEM (Life Technologies 12320-032) containing 10% fetal bovine serum (FBS) at 37° C. in a humidified 10% CO2, 90% air incubator. The SV40 transformed human mammary epithelial cell line HB4a was transfected with either human H-ras cDNA (HB4a r4.2) or the human c-erbB2 cDNA (HB4a c5.2). The HB4a clones were cultured in RPMI containing 10% FBS, insulin ([…]), hydrocortisone ([…]), supplemented with the selection agent hygromycin B (50 μg/ml). Cells were harvested using trypsin/EDTA, counted using a haemocytometer, and plated in […] of the appropriate media, at the following densities, in a 96-well tissue culture plate (Falcon 3075): BT474 10,000 cells/well, HN5 3,000 cells/well, N87 10,000 cells/well, HB4a c5.2 3,000 cells/well, HB4a r4.2 3,000 cells/well, HFF 2500 cells/well. The next day, compounds were diluted in DMEM containing […] gentamicin, at twice the final required concentration, from 10 mM stock solutions in DMSO. […] of these dilutions were added to the […] of media currently on the cell plates. Medium containing 0.6% DMSO was added to control wells. […] Optical density at 620 nm was measured on a microplate reader. Percent inhibition of cell growth was calculated relative to vehicle treated control wells. […]

The test system of a further series is breast (BT474) cell line. The experiment in a line: Methylene blue growth inhibition assay, BT474. In kind it is cell-based. As to conditions: Homo sapiens, BT-474, 72 h, BT474 cells, 3 days. As for the experimental part: as §1
Series [3] has as its system head and neck (HN5) cell line. The experiment in a line: Methylene blue growth inhibition assay, HN5. In kind it is cell-based. As to conditions: Homo sapiens, 72 h, HN5 cells, 3 days. As for the experimental part:
as §1

Several values for one entry are separate records, joined by “and”; a condition that tells them apart may be missing. Equal values may be shown once.

Usually solubility stands for how much of the substance goes into solution per volume. As usually defined, the IC50 is the concentration at which inhibition is half-maximal. Low readings indicate greater potency in that assay, high ones weaker potency in that assay.

Turning to `CS(=O)(=O)CCNCc1ccc(-c2ccc3ncnc(Nc4ccc(OCc5cccc(F)c5)c(Cl)c4)c3c2)o1.C[C@H](O)C(=O)O.C[C@H](O)C(=O)O` [Di-L-lactate, N-{3-Chloro-4-[(3-fluorobenzyl)oxy]phenyl}-6-[5-({[2-(methanesulphonyl)ethyl]amino}methyl)-2-furyl]-4-quinazolinamine di-L-lactate], the values for the solubility in series [1] (Solubility as free base) and in series [1] (Solubility as salt) were more than 10300 µg/mL and more than 13500 µg/mL, respectively.

Consider `CS(=O)(=O)CCNCc1ccc(-c2ccc3ncnc(Nc4ccc(OCc5cccc(F)c5)c(Cl)c4)c3c2)o1.O=C(O)c1ccccc1.O=C(O)c1ccccc1` [Dibenzoate, N-{3-Chloro-4-[(3-fluorobenzyl)oxy]phenyl}-6-[5-({[2-(methanesulphonyl)ethyl]amino}methyl)-2-furyl]-4-quinazolinamine dibenzoate], for which the figures for the solubility in series [1] (Solubility as free base) and in series [1] (Solubility as salt) were 40 µg/mL and 60 µg/mL, respectively.

As for `CS(=O)(=O)CCNCc1ccc(-c2ccc3ncnc(Nc4ccc(OCc5cccc(F)c5)c(Cl)c4)c3c2)o1.O=S(=O)(O)c1ccccc1.O=S(=O)(O)c1ccccc1` [Dibesylate, N-{3-Chloro-4-[(3-fluorobenzyl)oxy]phenyl}-6-[5-({[2-(methanesulphonyl)ethyl]amino}methyl)-2-furyl]-4-quinazolinamine dibesylate], in series [1], the “Solubility as free base” value is reported as “<LoD”.

For the compound `CCS(=O)(=O)O.CCS(=O)(=O)O.CS(=O)(=O)CCNCc1ccc(-c2ccc3ncnc(Nc4ccc(OCc5cccc(F)c5)c(Cl)c4)c3c2)o1` [Diesylate, N-{3-Chloro-4-[(3-fluorobenzyl)oxy]phenyl}-6-[5-({[2-(methanesulphonyl)ethyl]amino}methyl)-2-furyl]-4-quinazolinamine diesylate], the solubility in series [1] (Solubility as free base) was approximately 19700 µg/mL; in series [1] (Solubility as salt) it was approximately 27200 µg/mL.

As for `CS(=O)(=O)CCNCc1ccc(-c2ccc3ncnc(Nc4ccc(OCc5cccc(F)c5)c(Cl)c4)c3c2)o1.O.O=C(O)/C=C\C(=O)O.O=C(O)/C=C\C(=O)O` [Dimaleate monohydrate, N-{3-Chloro-4-[(3-fluorobenzyl)oxy]phenyl}-6-[5-({[2-(methanesulphonyl)ethyl]amino}methyl)-2-furyl]-4-quinazolinamine dimaleate monohydrate], the solubility in series [1] (Solubility as free base) was found to be 40 µg/mL; in series [1] (Solubility as salt) it was 60 µg/mL.

`CS(=O)(=O)CCNCc1ccc(-c2ccc3ncnc(Nc4ccc(OCc5cccc(F)c5)c(Cl)c4)c3c2)o1.O=C(O)/C=C\C(=O)O.O=C(O)/C=C\C(=O)O` [Dimaleate, N-{3-Chloro-4-[(3-fluorobenzyl)oxy]phenyl}-6-[5-({[2-(methanesulphonyl)ethyl]amino}methyl)-2-furyl]-4-quinazolinamine dimaleate]: in series [1] (dimaleate), the “Solubility as free base” value was 0.15 mg/mL and 0.14 mg/mL; the Solubility as salt was 0.20 mg/mL and 0.19 mg/mL. The solubility in series [1] (Solubility as free base) came out at 130 µg/mL. For the same compound, the solubility in series [1] (Solubility as salt) is 180 µg/mL.

In the case of `CS(=O)(=O)CCNCc1ccc(-c2ccc3ncnc(Nc4ccc(OCc5cccc(F)c5)c(Cl)c4)c3c2)o1.CS(=O)(=O)O.CS(=O)(=O)O.O.O` [Dimesylate dehydrate, N-{3-Chloro-4-[(3-fluorobenzyl)oxy]phenyl}-6-[5-({[2-(methanesulphonyl)ethyl]amino}methyl)-2-furyl]-4-quinazolinamine dimesylate dihydrate], the solubility in series [1] (Solubility as free base) is approximately 15300 µg/mL; in series [1] (Solubility as salt), approximately 21300 µg/mL.

As to `CS(=O)(=O)CCNCc1ccc(-c2ccc3ncnc(Nc4ccc(OCc5cccc(F)c5)c(Cl)c4)c3c2)o1.CS(=O)(=O)O.CS(=O)(=O)O.O` [Dimesylate monohydrate, N-{3-Chloro-4-[(3-fluorobenzyl)oxy]phenyl}-6-[5-({[2-(methanesulphonyl)ethyl]amino}methyl)-2-furyl]-4-quinazolinamine dimesylate monohydrate], in series [1] (dimesylate monohydrate), the “Solubility as free base” value is recorded as 1) ~4.70 mg/ml and the Solubility as salt is 1) 6.25 mg/ml. In addition, the solubility in series [1] (Solubility as free base) was approximately 4360 µg/mL. The solubility in series [1] (Solubility as salt) was 5800 µg/mL.

In the case of `CS(=O)(=O)CCNCc1ccc(-c2ccc3ncnc(Nc4ccc(OCc5cccc(F)c5)c(Cl)c4)c3c2)o1.CS(=O)(=O)O.CS(=O)(=O)O` [Dimesylate, N-{3-Chloro-4-[(3-fluorobenzyl)oxy]phenyl}-6-[5-({[2-(methanesulphonyl)ethyl]amino}methyl)-2-furyl]-4-quinazolinamine dimesylate], the figures for the solubility in series [1] (Solubility as free base) and in series [1] (Solubility as salt) were more than 7350 µg/mL and more than 10000 µg/mL, respectively.

Turning to `CS(=O)(=O)CCNCc1ccc(-c2ccc3ncnc(Nc4ccc(OCc5cccc(F)c5)c(Cl)c4)c3c2)o1` [GW572016X, N-{3-Chloro-4-[(3-fluorobenzyl)oxy]phenyl}-6-[5-({[2-(methanesulphonyl)ethyl]amino}methyl)-2-furyl]-4-quinazolinamine], the IC50 (in series [2]; in the series with breast (BT474) cell line; in series [3]) was less than 5 µM each time.

For `CS(=O)(=O)CCNCc1ccc(-c2ccc3ncnc(Nc4ccc(OCc5cccc(F)c5)c(Cl)c4)c3c2)o1.O=C(O)C[C@H](O)C(=O)O` [Mono L-malate, N-{3-Chloro-4-[(3-fluorobenzyl)oxy]phenyl}-6-[5-({[2-(methanesulphonyl)ethyl]amino}methyl)-2-furyl]-4-quinazolinamine mono-L-malate], the Solubility as salt in series [1] (mono-L-malate) was found to be 0.07 mg/mL. Also, the solubility worked out at 50 µg/mL in series [1] (Solubility as free base) and 60 µg/mL in series [1] (Solubility as salt).

Consider `CS(=O)(=O)CCNCc1ccc(-c2ccc3ncnc(Nc4ccc(OCc5cccc(F)c5)c(Cl)c4)c3c2)o1.C[C@H](O)C(=O)O` [Mono-L-lactate, N-{3-Chloro-4-[(3-fluorobenzyl)oxy]phenyl}-6-[5-({[2-(methanesulphonyl)ethyl]amino}methyl)-2-furyl]-4-quinazolinamine mono-L-lactate], for which the Solubility as salt in series [1] is given as 2) 7.9 mg/ml. Besides, the solubility in series [1] (Solubility as free base) is approximately 7300 µg/mL; in series [1] (Solubility as salt), 8500 µg/mL.

Take `CS(=O)(=O)CCNCc1ccc(-c2ccc3ncnc(Nc4ccc(OCc5cccc(F)c5)c(Cl)c4)c3c2)o1.O=C(O)CC(O)(CC(=O)O)C(=O)O` [Monocitrate, N-{3-Chloro-4-[(3-fluorobenzyl)oxy]phenyl}-6-[5-({[2-(methanesulphonyl)ethyl]amino}methyl)-2-furyl]-4-quinazolinamine monocitrate]: the solubility in series [1] (Solubility as free base) and in series [1] (Solubility as salt) was 10 µg/mL throughout.

On to `CCS(=O)(=O)O.CS(=O)(=O)CCNCc1ccc(-c2ccc3ncnc(Nc4ccc(OCc5cccc(F)c5)c(Cl)c4)c3c2)o1` [Monoesylate, N-{3-Chloro-4-[(3-fluorobenzyl)oxy]phenyl}-6-[5-({[2-(methanesulphonyl)ethyl]amino}methyl)-2-furyl]-4-quinazolinamine monoesylate], for which, in series [1], the “Solubility as free base” value stood at 0.53 mg/mL and the Solubility as salt came out at 0.63 mg/mL. In series [1] (Solubility as free base), the solubility stood at 520 µg/mL. The solubility in series [1] (Solubility as salt) turned out to be 620 µg/mL.

As to `CS(=O)(=O)CCNCc1ccc(-c2ccc3ncnc(Nc4ccc(OCc5cccc(F)c5)c(Cl)c4)c3c2)o1.CS(=O)(=O)O` [Monomesylate, N-{3-Chloro-4-[(3-fluorobenzyl)oxy]phenyl}-6-[5-({[2-(methanesulphonyl)ethyl]amino}methyl)-2-furyl]-4-quinazolinamine monomesylate], the solubility came out at 330 µg/mL in series [1] (Solubility as free base) and 390 µg/mL in series [1] (Solubility as salt).

With `CS(=O)(=O)CCNCc1ccc(-c2ccc3ncnc(Nc4ccc(OCc5cccc(F)c5)c(Cl)c4)c3c2)o1.O=C(O)CCC(=O)O` [Succinate, N-{3-Chloro-4-[(3-fluorobenzyl)oxy]phenyl}-6-[5-({[2-(methanesulphonyl)ethyl]amino}methyl)-2-furyl]-4-quinazolinamine monosuccinate], in series [1], the “Solubility as free base” value was “<LoD” and the Solubility as salt entry is reported as “<LoD”.

In the case of Lapatinib Di-L-Malate, in series [1], the “pH of the remaining solution” value is on record as 3.2, the “Solubility as free base” value was 0.91 mg/mL and the Solubility as salt worked out at 1.33 mg/mL.

Consider Lapatinib Difumarate, for which, in series [1], the “pH of the remaining solution” value is listed as 3.0 and the “Solubility as free base” value is given as “<LoD”.

In the case of Lapatinib Monofumarate, in series [1], the “pH of the remaining solution” value turned out to be 4.0 and the “Solubility as free base” value is given as “<LoD”.

(Values after US20110245496A1, “Quinazoline Salt Compounds” (priority 2007, published 2011).)
